These results are taken from patent US8618101B2, “N-((1R,2S,5R)-5-(tert-butylamino)-2-((S)-3-(7-tert-butylpyrazolo[1,5-a][1,3,5]triazin-4-ylamino)-2-oxopyrrolidin-1-yl)cyclohexyl)acetamide, a dual modulator of chemokine receptor activity, crystalline forms and processes” (Bristol-Myers Squibb Company, priority 2009, dated 2013).

The target in one assay is T1, hERG (Homo sapiens, UniProt Q12809).
T1 construct: expressed in transfected cells; host or cells: HEK293
Briefly: hERG Flux (Tl+ flux, FLIPR). The format is cell-based. The following applies: HEK293 cells expressing hERG. How it is done:
HEK293 cells stably-expressing hERG channels were grown (37° C., 5% CO2) in Dulbecco's Modified Eagle's Media supplemented with 10% Sigma fetal bovine serum, non-essential amino acids, 2 mM L-glutamine and 500 μg/ml G418, at incubator. Cell dissociation buffer was used to extract the cells from flasks, which were then plated into 384-well CORNING® poly-D-lysine coated black/clear plates at a density of 2×10^4 cells per well (20 μl) in 10% serum media, and incubated for 15-24 hours at 37° C. in a 5% CO2 incubator until a confluent monolayer of cells was obtained. […]
The test compound was diluted to 10 mM DMSO in 60 μl. […] Assay-ready plates were generated by stamping 2.5 μl from the DMSO serially diluted plate, which was prepared on the Velocity 11 BIOCEL®. Aqueous plates were created by adding 48 μl of EP buffer and then were diluted 30-45 minutes before the assay was read on the FLIPR®. […] Assay-ready aqueous plates were prepared and diluted on a CyBio liquid handler.
Cells loaded with dye were read on the FLIPR®384 (Molecular Devices, Sunnyvale, Calif.), which excites the dye using the 488 nm line of an argon laser. […]
The dynamic range of the assay was determined from blanks and totals wells. […] Data were analyzed by fitting maximum amplitudes of change in fluorescence for Tl^+ flux for a given condition of test compound.
(hERG is a cardiac potassium channel; its block is linked to QT prolongation.)

For assay [1], the system named is monocyte/macrophage infiltration. The assay is described as follows: 48-hour thioglycollate (TG)-induced peritonitis model in hCCR-2 KI mouse. The format is in vivo. Particulars: for % inhibition of monocyte/macrophage infiltration: 48 h post TG. The method, then:
The hCCR-2 KI mice (C57BL/6-SVJ129) were injected intraperitoneally with 1 ml of thioglycollate (TG) (Hardy Diagnostics). For each study, eight male mice per group were used. Example 1 was dosed orally 1 hour prior to TG injection. The vehicle used was 0.01 N HCl in water. Forty-eight hours post TG injection, peritoneal lavages were performed by injecting 5 ml PBS/10 mM EDTA/10% BSA into the peritoneal cavity.
For the 48-hour TG peritonitis study, Example 1 was dosed twice a day with the first dose one hour prior to TG injection. Total peritoneal cell counts were obtained on isolated cells by a cell counter. Cytospins were performed to determine differential leukocyte counts. The cells were stained for 3 minutes with Wright-Giemsa Stain (Sigma-Aldrich) and then rinsed with deionized water for 5 minutes. Differential counts were calculated based on a total of 200 cells counted per sample. Blood was also collected from the retro-orbital sinus at the end of each study in EDTA for determination of drug concentration.
For flow cytometric analysis, peritoneal exudate cells (1×10^6) were washed once with FACS buffer (PBS/0.5% BSA) and resuspended in FACS buffer. Cells were incubated with an Fc-blocking antibody (BD Pharmingen) on ice for 15 min followed by addition of the following antibodies (BD Pharmingen): PE conjugated anti-F4/80, FITC conjugated anti-Ly6C, and Alexa 647 conjugated anti-hCCR-2. After 45 min on ice, cells were fixed by BD CYTOFIX® for 15 min on ice, washed twice with FACS buffer, and resuspended in 200 μl FACS buffer. Cellular events (40,000) were acquired for each sample and data were analyzed using FloJo software (TreeStar). A FSC/SSC gate was set to include all monocytes (low SSC, higher FSC) while excluding granulocytes from the analysis. This gated population was then analyzed for Ly6C (FITC), F4/80 (PE) expression. Peritoneal monocytes/macrophage numbers were determined by multiplying total peritoneal cell counts obtained by the cell counter and the percentage of monocytes/macrophages identified by F4/80^+ cells from flow cytometry. Statistical significance of differences between means was analyzed using the paired two-tailed t test with significance set at p values below 0.05.
Example 1 was evaluated in the hCCR-2 KI mouse TG peritonitis model to determine its EC50 in inhibiting monocyte/macrophage infiltration. Mice were administered thioglycollate, and dosed orally with Example 1 at 10, 50, or 160 mg/kg BID. Forty eight hours post TG treatment, peritoneal lavage was obtained for cellular infiltrate analysis by flow cytometry.

Each structure is given as a SMILES string.

T1 sequence (Q12809 whole entry): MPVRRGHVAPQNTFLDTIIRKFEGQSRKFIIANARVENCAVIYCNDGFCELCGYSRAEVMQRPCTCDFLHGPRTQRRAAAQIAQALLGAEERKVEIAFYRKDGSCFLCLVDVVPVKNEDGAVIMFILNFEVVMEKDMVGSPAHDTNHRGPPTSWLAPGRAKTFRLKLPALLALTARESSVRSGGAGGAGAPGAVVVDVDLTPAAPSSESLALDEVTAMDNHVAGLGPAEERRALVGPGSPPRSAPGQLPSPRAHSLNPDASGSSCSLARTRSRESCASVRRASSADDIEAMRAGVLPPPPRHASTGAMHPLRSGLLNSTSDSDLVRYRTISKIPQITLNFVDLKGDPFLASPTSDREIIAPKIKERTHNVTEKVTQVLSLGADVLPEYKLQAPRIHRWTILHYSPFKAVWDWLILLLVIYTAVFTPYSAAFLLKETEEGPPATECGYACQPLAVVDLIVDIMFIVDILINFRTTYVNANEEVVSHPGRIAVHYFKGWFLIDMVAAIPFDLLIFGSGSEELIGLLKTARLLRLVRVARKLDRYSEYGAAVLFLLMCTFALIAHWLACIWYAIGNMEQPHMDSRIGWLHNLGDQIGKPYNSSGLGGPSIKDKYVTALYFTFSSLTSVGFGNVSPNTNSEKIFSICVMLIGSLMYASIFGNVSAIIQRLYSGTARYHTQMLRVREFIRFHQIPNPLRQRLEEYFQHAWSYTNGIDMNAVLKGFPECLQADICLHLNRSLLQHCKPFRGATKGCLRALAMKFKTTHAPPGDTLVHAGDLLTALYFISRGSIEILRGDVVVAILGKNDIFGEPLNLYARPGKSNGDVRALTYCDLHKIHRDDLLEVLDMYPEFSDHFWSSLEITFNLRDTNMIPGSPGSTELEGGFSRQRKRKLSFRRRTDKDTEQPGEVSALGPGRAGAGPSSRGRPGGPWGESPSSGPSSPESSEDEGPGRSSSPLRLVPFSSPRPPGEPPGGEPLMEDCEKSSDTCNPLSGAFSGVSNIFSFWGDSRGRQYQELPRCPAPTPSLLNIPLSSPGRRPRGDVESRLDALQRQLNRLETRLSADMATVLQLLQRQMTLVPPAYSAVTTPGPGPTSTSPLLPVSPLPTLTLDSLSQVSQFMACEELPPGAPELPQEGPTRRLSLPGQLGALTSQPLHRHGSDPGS

As usually defined, the IC50 is the concentration that gives 50% inhibition. In the case of `CC(=O)N[C@@H]1C[C@H](NC(C)(C)C)CC[C@@H]1N1CC[C@H](Nc2ncnc3cc(C(C)(C)C)nn23)C1=O` [Example 1, N-((1R,2 S,5R)-5-(tert-Butylamino)-2-((S)-3-(7-tert-butylpyrazolo[1,5-a][1,3,5]triazin-4-ylamino)-2-oxopyrrolidin-1-yl)cyclohexyl)acetamide], the IC50 at hERG was greater than 80000 nM. The “% inhibition of monocyte/macrophage infiltration” value in assay [1] (10 mg/kg oral BID) was determined as 25%; in assay [1] (50 mg/kg oral BID), 54%; in assay [1] (160 mg/kg oral BID), 63%; in assay [1] (200 mg/kg (different study), oral BID) it was 71%. Besides, the EC50 in assay [1] (Mus musculus, estimated from four separate studies, hCCR-2 KI mouse, read-out: average EC50 for inhibition of monocyte/macrophage infiltration) is 4.9 nM. For the same compound, in assay [1] (four separate studies with multiple doses), the “maximal inhibition of monocyte/macrophage infiltration reached” value was roughly 70%.
